Experimental data from US9675065B2 (priority 2011, dated 2017).
Entries after “also recorded” stand apart in the source; their conditions may differ.

Key:
[1] = test system: S. aureus (Staphylococcus aureus ATCC#6538); assay type: cell-based
Staphylococcus aureus = assay type: cell-based; conditions: pH 7
[2] = 10 ml of 5 wt % stock solution + 100 microliters acidified silver chloride, ceramic cylinder

gas formation on the test cylinder [2] | Molecule | rate of kill / biocide efficacy (in words) [1] | biocide efficacy (in words) (Staphylococcus aureus)
 | furoyl chlorate | excellent rate of kill; also recorded: excellent biocide efficacy | no antimicrobial efficacy
slow formation of gas | OO [hydrogen peroxide] |  | 
